Results on 3 molecules are retold here after PMC8233319, “Protein mimetic amyloid inhibitor potently abrogates cancer-associated mutant p53 aggregation and restores tumor suppressor function” (Nature Communications, 2021).

The target in data set [1] is T1, p53 (mutant R248W DBD-derived peptide pR248W) (Homo sapiens, UniProt P04637, R248W).
T1 construct: gene TP53
As to the kind of experiment: intrinsic tryptophan fluorescence quenching titration (also HSQC NMR on R248W DBD and CETSA in MIA PaCa-2 cells). The data set is classed as binding.

For a further data set, the target named is T2, p53 (mutant R175H) (Homo sapiens, UniProt P04637, R175H).
T2 construct: gene TP53; endogenous mutant p53 in SK-BR-3 cells
As to the kind of experiment: CETSA in SK-BR-3 cells (Tm […] to […] °C at […]). Format: cell-based.

Data set [2] addresses T1, p53 (mutant R248W DBD-derived peptide pR248W). As to the kind of experiment: intrinsic tryptophan fluorescence quenching titration (weak; no CETSA stabilization of R248W). The data set is classed as binding.
Data set [3] deals with the molecule itself. The data set is described as follows: thioflavin T (ThT) amyloid aggregation kinetics; 25 uM peptide alone in PBS with 50 uM ThT, shaking, 37 °C, fluorescence every 5 min; self-assembly into amyloid.

Consider `CCCCOc1nc(C(=O)Nc2ccc(C(=O)Nc3ccc(C(=O)OC)nc3OCCCN)nc2OCCCN)ccc1[N+](=O)[O-]` [ADH-6], for which, in data set [1], the Kd was determined as 0.366 ± 0.013 µM. For the same molecule, the “CETSA in SK-BR-3 cells (Tm 38.8 to 45.1 °C at 5 μM)” value on p53 (mutant R175H) stood at 45.1 ± 1.2 °C.
`COC(=O)c1ccc(NC(=O)c2ccc(NC(=O)c3ccc([N+](=O)[O-])c(OCC(=O)O)n3)c(OCc3ccccc3)n2)c(OCC(=O)O)n1` [ADH-1] yielded a Kd in data set [2] of 15.4 ± 0.8 µM.

B1: pWT, WT p53 DBD-derived peptide (residues 248-273) (peptide, UniProt P04637 248-273, looked up)
peptide: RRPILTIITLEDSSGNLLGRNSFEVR
notes: source: synthetic peptide (Selleck Chemicals, Fmoc; purified in house by reverse-phase HPLC)
On to B1, for which the binding result in data set [3] is given as “binds”.
